# Results published in the supplement of paper PMC10307832.
# Compound: CC[C@H](CO)Nc1nc(NCc2ccccc2)c2ncn(C(C)C)c2n1 [Seliciclib]
# Experiment: relative viability (nuclei count vs DMSO), 5 days (fraction); higher = more cells survive
# Method in brief: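 Lung cancer cell lines in 1536-well plates were kept overnight at 37 °C, then pinned with five library-drug doses (not always all listed) spaced by √10 on vehicle-anchored plates. After 5 days without medium change, cells were fixed, permeabilised and Hoechst-stained in one step, imaged at 4×, and nuclei were counted with MetaXpress. Viability is treated-well nuclei divided by vehicle-well nuclei, taken as the median over plates. Plates passed only with control CV below 25% and at least one doubling.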
Cell Line,relative viability (0.08 µM),relative viability (0.253 µM),relative viability (0.8 µM),relative viability (2.53 µM),relative viability (8 µM)
COR-L 105,0.932,1.14,0.924,0.851,0.902
LK-2,0.99,0.737,0.966,0.759,0.69
NCI-H727,0.85,0.891,0.8,0.796,0.75
RERF-LC-KJ,0.935,0.903,0.96,0.985,0.878
NCI-H2023,0.989,0.956,0.964,0.857,0.725
NCI-H322M,0.932,1.09,0.798,0.799,0.753
NCI-H1666,0.955,1.13,1.01,0.866,0.829
SW 900,0.9,0.994,1.09,0.744,0.668
NCI-H2087,1.03,1.08,0.956,0.836,0.791
LU99A,0.962,0.836,0.953,0.69,0.775
HCC-366,1.01,1.06,0.998,1.03,0.938
EKVX,0.946,1.03,0.862,0.923,0.844
NCI-H522,0.944,0.94,1.05,0.847,0.727
NCI-H1755,1.01,0.995,0.951,0.99,0.989
NCI-H647,0.971,0.836,1.03,0.939,0.754
LC-2-ad,1,1.14,0.973,0.846,0.888
HCC-827,1.04,1.07,1.01,1.05,0.907
HCC-78,1,1.05,0.91,0.703,0.733
NCI-H2085,1.01,1.04,1.01,0.961,0.873
PC-14,0.995,1.03,1.02,0.987,0.859
NCI-H358,0.932,0.922,0.785,0.621,0.633
A-427,1.03,1.02,1.02,0.883,0.967
H3255,1.07,0.94,1.08,0.965,0.888
HCC-44,1,1.05,1.01,0.931,0.899
NCI-H1734,1.02,0.802,1.04,0.812,0.741
NCI-H2228,0.974,0.88,1.01,0.923,0.753

Cell Line,relative viability (0.08 µM),relative viability (0.253 µM),relative viability (0.8 µM),relative viability (2.53 µM),relative viability (8 µM)
ABC-1,0.995,1.12,1,0.615,0.582
COR-L23,1.02,1.15,1.06,1.01,0.821
NCI-H661,0.964,1.02,0.966,0.916,0.756
NCI-H1993,0.979,0.761,0.884,0.723,0.633
NCI-H1437,0.965,1.12,0.968,0.95,0.872
UMC-11,0.974,0.872,1.03,0.926,0.824
201T,0.982,1.06,0.959,0.845,0.883
NCI-H1944,0.983,0.947,0.898,0.73,0.707
ChaGo-K-1,1.05,0.995,0.923,0.935,0.912
NCI-H1650,0.926,1.1,0.95,0.824,0.663
LOU-NH91,0.789,0.916,0.919,0.85,0.723
HOP-62,1.04,1.1,1.08,1,0.94
NCI-H1915,0.982,1.02,0.956,0.933,0.856
NCI-H3122,0.994,0.947,0.883,0.983,0.894
NCI-H1651,1.01,0.974,0.958,0.895,0.906
EBC-1,0.945,0.84,1.06,0.985,0.663
NCI-H838,0.945,0.956,0.944,0.926,0.805
NCI-H596,1.01,–,0.948,0.991,0.872
SK-LU-1,1.03,1.05,1.07,0.975,0.782
NCI-H441,1.07,1.01,1.06,0.783,0.566
NCI-H650,0.942,0.892,1.24,0.591,0.831
NCI-H2170,0.93,0.697,0.897,0.997,0.946
NCI-H1792,0.938,0.939,0.944,–,0.791
NCI-H1355,0.977,0.959,0.89,0.905,0.959
SW 1573,1.03,0.989,0.888,0.913,0.757
A549,0.914,0.985,0.931,0.906,0.81

Cell Line,relative viability (0.08 µM),relative viability (0.253 µM),relative viability (0.8 µM),relative viability (2.53 µM),relative viability (8 µM)
NCI-H2347,0.982,1.08,0.936,0.994,0.95
LCLC-97TM1,0.984,1,0.911,0.473,0.651
EMC-BAC-2,0.978,0.894,1.03,0.654,0.811
NCI-H1975,0.949,0.822,0.993,0.8,0.843
NCI-H2342,0.967,0.74,0.947,0.842,0.905
BEN,1.04,0.82,1.03,0.907,0.817
SK-MES-1,0.999,1.03,0.942,1,0.857
NCI-H1703,0.947,0.905,1.04,0.951,0.965
NCI-H23,1.01,0.81,0.991,0.449,0.565
NCI-H520,0.918,–,0.968,1.12,0.843
CAL-12T,0.986,1.11,0.922,0.934,0.641
EPLC-272H,0.982,0.876,0.863,0.863,0.844
LCLC-103H,1,0.934,0.929,0.836,0.914
NCI-H2405,0.919,1.02,0.976,0.804,0.872
HCC-15,1.04,1.06,0.925,0.926,0.764
PC-3 [JPC-3],1.03,1.08,0.994,0.928,0.913
NCI-H1648,0.922,1.11,1.18,0.721,0.704
HARA,0.927,1.08,1.01,0.945,0.844
NCI-H1563,1.03,0.872,1.06,0.833,0.897
NCI-H2126,0.965,0.931,0.961,0.663,0.829
LXF-289,0.983,1.2,0.972,1.02,0.91
NCI-H460,0.952,1.13,0.996,1.04,0.889
NCI-H1395,0.978,0.725,0.857,0.789,0.94
NCI-H1793,0.86,0.771,0.785,0.859,0.764
NCI-H2009,1.03,1.16,1.03,0.996,0.994
